Entries after “also recorded” stand apart in the source; their conditions may differ.
Assays:
[1] = molecular target: T1, Na/K-ATPase/Src receptor complex (Sus scrofa, UniProt P05024); experiment: FRET based high throughput screen for agonists and antagonists; format: biochemical, pig; conditions: screen with ouabain plus compounds, followed by cell-based analyses
T1 construct: The α1 Na/K-ATPase was purified from pig kidney; tissue Upstate Biotechnology (Src only); host or cells: pig kidney (Na/K-ATPase)
Text: Referring now to FIGS. 2A and 2B, there are shown schematic illustrations of a FRET based high throughput assay for agonist and antagonist. […] A pathway-based approach is useful to screen for agonists of Na/K-ATPase/Src receptor targets. Agonist can interact with Na/K-ATPase resulting Src phosphorylation. This active Src transfers the γ-phosphate of ATP to a single tyrosine residue in the synthetic peptide substrate. Then, a site specific protease recognizes and cleaves non-phosphorylated peptides. […] Cleavage disrupts FRET on the peptide, whereas uncleaved, phosphorylated peptides maintain FRET.
This assay is similar as the agonist screening. For example, in the presence of ouabain, antagonist can reduce ouabain induced peptide substrate phosphorylation.
(§1) In one example, the FRET-based in vitro high throughput assay utilizes the in vitro reconstitution of receptor Na/K-ATPase and Src, and a peptide Src substrate-based FRET assay. […] To reconstitute the receptor α1 Na/K-ATPase/Src complex, purified pig kidney Na/K-ATPase was mixed with purified recombinant Src. This receptor complex has an inhibited Src activity. The binding of agonists to the receptor complex releases the inhibited Src and result in an increase in Src activity, which is measured by a peptide-based FRET analysis (FIG. 2A, FIG. 2B). To screen the agonist of receptor Na/K-ATPase/Src complex, the reconstituted receptor is exposed to compounds, and then measured for Src activation using the peptide-based FRET assay.
The chemical library used for screening in the present study contained 100 structurally diverse, drug-like, naturally occurring organic compounds or their semisynthetic derivatives. Stock compounds were prepared at 10 mM in DMSO. The specific activities of Na/K-ATPase of various kidney preparations were in the range of 900-1,200 μmol/mg/h. The high throughput screen was conducted in a Corning 384-well low-volume assay plates at room temperature.
The first step was Kinase Reaction with the final reaction volume of 10 μl. The purified Src (4.5 U) was incubated with 2 μg of the purified Na/K-ATPase in phosphate-buffered saline (PBS) for 5 min. Afterward, the Na/K-ATPase/Src complex was exposed to compounds to screen for agonist or ouabain 10 μM plus compounds to screen antagonists for 10 min. Then, the Src kinase substrate Tyr 2 peptide or phosphor-peptide (control) was added. The reaction was initiated by addition of 2 mM ATP/Mg^2+, continued for 60 min.
The second step was Development Reaction. Each well was added 5 μl Development Solution, then mix the plate and incubate another 60 min. The assay was stopped by adding 5 μl stop reagent and then fluorescent signals were measured.

ERKs in LLC-PK1 cells = experiment: Immunostaining assay for active ERK in LLC-PK1 cells; format: cell-based, pig; conditions: pretreated cells exposed to 1 nM ouabain for 60 min
Description: (§2) To assay for receptor antagonist, the reconstituted receptor was exposed to compounds in the presence and absence of an agonist (ouabain) and then assessed whether the compounds could antagonize ouabain-induced activation of Src. To verify that they are specific antagonists of receptor Na/K-ATPase/Src complex, their effects on ouabain-, EGF- and dopamine-induced signal transduction was measured in LLC-PK1 and PY-17 cells.
LLC-PK1 cells were pretreated with different concentrations of MB5 for 15 min, exposed to 1 nM ouabain for 60 min, and assayed for active ERKs. A representative set of images is shown. LLC-PK1 cells were pretreated with different concentrations of MB5 for 15 min, exposed to stimuli for either 10 or 3 min, and assayed for active ERKs. A representative set of images is shown.
The data presented in FIGS. 6C-6E show blocking ouabain-induced ERK activation by other antagonists of receptor Na/K-ATPase/Src complex. […] Both control and Tanshinone I-pretreated cells were exposed to ouabain (1 nM) for 1 hour, and processed for immuno-staining of active ERK as in FIG. 6A. A representative set of images are presented from three separate experiments.
LLC-PK1 cells grown on coverslip were serum-starved and treated with MB5 or stimuli for indicated time. […] The signals were detected by a Leica (Wetzlar, Germany) confocal microscope. […]

[2] = system: ouabain-induced signal transduction in cultured cells; experiment: Ouabain-induced signal transduction in cultured cells; format: cell-based
Description: as §2

DU145 tumor xenograft = experiment: DU145 xenograft tumors in NOD/SCID mice; format: in vivo; conditions: 20 mg/kg i.p. every day for 3 weeks
Description: FIGS. 8A-8C show the MB5 effect on the growth of DU145 tumor xenografts in NOD/SCID mice Viable DU145 cells (5×10^6) were injected to the flank of NOD/SCID mice. After tumor reached 100 mm^3, mice were injected via i.p. with DMSO or MB5 at a dose of 20 mg/Kg. Values are mean±S.E. ** p<0.01 compared with each control.
Animal protocols were approved by the Institutional Animal Care and Use Committee at the University of Toledo Health Science Campus. Tumor xenografts were established by subcutaneous injection of 5×10^6 DU145 cells into two flanks of 6-week-old female NOD/SCID mice (Charles River). When the tumors reached an average volume of 100 mm^3, mice were injected intraperitoneally with DMSO or MB5 (at doses of 20 mg/kg body weight) every day for 3 weeks.

[3] = molecular target: T1, Na/K-ATPase/Src receptor complex; experiment: Reconstituted Na/K-ATPase/Src receptor complex, Src pY418 by Western blot (kinase activity assay of Src); format: biochemical, pig; conditions: ouabain 1 μM, 100 μM vanade to inactivate ATPase activity
Description: as §1
Phosphorylation of Src pY 418, as an indicator of Src activation, was measured by Western blot. Ouabain was used at 1 μM and the assay was done in the presence of 100 μM vanade to inactivate ATPase activity. Values are mean±S.E. of at least three independent experiments. * p<0.05 compared with control. ** p<0.01 compared with control.
as §2
To determine whether the compound affect the Na/K-ATPase/Src receptor activity, the compounds was incubated with the purified Src (4.5 U) and 1 μg Na/K-ATPase for 15 min at 37° C. Afterward, 2 mM ATP/Mg^2+ was added. The reaction continued for 15 min at 37° C. and was stopped by addition of SDS sample buffer. Afterward, the Src pY418 was measured by anti-pY418 antibody to indicate Src activation.

ERK in LLC-PK1 cells = experiment: Western blot of activated-ERK in LLC-PK1 cells; format: cell-based, pig; conditions: pretreated 30 min, ouabain 1 nM for 1 h
Description: LLC-PK1 cells were serum-starved overnight, washed and pretreated with Ferulic acid (A) for 30 min. Both control and compounds-pretreated cells were exposed to ouabain (1 nM) for 1 h. Cell lysates were collected, separated by SDS-PAGE and probed for activated-ERK and total-ERK. A representative western blot is shown. The quantitative data from three to four separate experiments were presented. (***, p<0.001 vs control; #, p<0.05 vs Oua).
The experiments were done as in FIG. 6D. The quantitative data from four separate experiments were presented. (***, p<0.001 vs control; ## #, p<0.001 vs Oua).
(§3) Cells were washed with PBS and solubilized in modified ice-cold radioimmune precipitation assay buffer, and subjected to Western blot analysis. Protein signals were detected using an ECL kit and quantified using ImageJ.

Src in LLC-PK1 cells = experiment: Cell-based Src activation assay, LLC-PK1 cells; design: species or system pig; conditions: 20 μM OA
Description: (§4) The second assay uses another pair of cell lines, LL-A416P-4 and LL-A420P-20. These cells were rat α1 A416P and A420P mutant-rescued PY-17 cells.
The pig kidney epithelia cells (LLC-PK1 cells) were obtained from ATCC and maintained in Dulbecco's modified Eagle's medium (DMEM) in the presence of 10% FBS, 100 units/ml penicillin, and 100 μg/ml streptomycin in a 5% CO2 humidified incubator. To eliminate the confounding effect of growth factors in the serum, cells were serum starved over night before experiments.
(§5) Referring now to FIG. 3A, cells were treated with indicated concentration of ouabain for 5 min, and total cell lysates were analyzed for pY418 and total Src. […] Values are mean±S.E. of at least three independent experiments. * p<0.05 compared with each control.
as §3

[4] = system: Src in P11 cells (LLC-PK1 transfected with empty vector); experiment: Cell-based Src activation assay, control cell P11; design: species or system pig
Description: (§6) To confirm that these agonists activate Src through the Na/K-ATPase, three complementary cell-based assays were established. One assay uses a LLC-PK1 derived al knockdown PY-17 cell, a control cell P11 (LLC-PK1transfected with empty vector), and another control cell AAC-19 (rat al-rescued PY-17 cells).
as §5, §3

[5] = system: Src in PY-17 cells (LLC-PK1 derived α1 knockdown); experiment: Cell-based Src activation assay, α1 knockdown PY-17 cells; design: species or system pig; conditions: Na/K-ATPase knockdown
Description: as §6, §4, §5, §3

[6] = system: Src in AAC-19 cells (rat α1-rescued PY-17 cells); experiment: Cell-based Src activation assay, control cell AAC-19
Description: as §6, §5, §3

[7] = system: Src in LY-F286A-19 cells (F286A mutant Na/K-ATPase); experiment: Cell-based Src activation assay, LY-F286A-19 cells; conditions: ouabain 10 min
Description: (§7) The third assay uses other two cell lines (LY-I279A-3, LY-F286A-19), where the expressed I279A or F286A mutant Na/K-ATPase was defective in conformational transition (I279A and F286A mutants were defective in E1 to E2 and E2 to E1 conformational transition, respectively). […] Cell (LY-I279A-3 and LY-F286A-19) based Assay for agonist (ouabain): Cells were treated with indicated concentration of ouabain for 10 min, and total cell lysates were analyzed for pY418 and total Src. […] Values are mean±S.E. of at least three independent experiments. * p<0.05 compared with each control.
as §3

[8] = system: Src in LY-I279A-3 cells (I279A mutant Na/K-ATPase); experiment: Cell-based Src activation assay, LY-I279A-3 cells; conditions: ouabain 10 min
Description: as §7, §3

[9] = system: Src in LL-A416P-4 cells (rat α1 A416P mutant-rescued PY-17 cells); experiment: Cell-based Src activation assay, LL-A416P-4 cells; conditions: ouabain 10 min
Description: as §4
as §5, with “Cell (LL-A416P-4 and LL-A420P-20) based assay for agonist (ouabain): Cells were” for “Referring now to FIG. 3A, cells were”, “for 10” for “for 5”
as §3

O=c1c2cccc(O)c2oc2c(O)c(O)ccc12 [MB5, 3,4,5-trihydroxyxanthone]
identification as antagonist of receptor Na/K-ATPase/Src complex (ouabain antagonist) [1]: positively identified as ouabain antagonists
identification as antagonist of receptor Na/K-ATPase/Src complex (ouabain antagonist) ([1]; listed as MB-5): receptor antagonists
effect on ouabain-induced activation of ERKs (ERKs in LLC-PK1 cells): blocked
effect on ouabain-induced signal transduction [2]: antagonize
growth of DU145 tumor xenograft (DU145 tumor xenograft): inhibited the growth
effect on ouabain-induced Src activation (Src pY418) [3]: antagonizing effects

O=c1c2ccc(O)c(O)c2oc2c(O)c(O)ccc12 [MB7, 3,4,5,6-tetrahydroxyxanthone]
effect on ouabain-induced signal transduction [2]: antagonize

CC(C)(O)[C@@H]1CC[C@](C)([C@H]2[C@@H](O)C[C@@]3(C)[C@@H]4C[C@H](O[C@@H]5O[C@H](CO)[C@@H](O)[C@H](O)[C@H]5O)[C@H]5C(C)(C)[C@@H](O[C@@H]6OC[C@@H](O)[C@H](O)[C@H]6O)CC[C@@]56C[C@@]46CC[C@]23C)O1 [astragaloside IV]
effect on ouabain-induced ERK activation (ERK in LLC-PK1 cells): inhibitory effects
identification as antagonist of receptor Na/K-ATPase/Src complex (ouabain antagonist) [1]: identified; also recorded: receptor antagonists

COc1cc(/C=C/C(=O)CC(=O)/C=C/c2ccc(O)c(OC)c2)ccc1O [curcumin]
identification as antagonist of receptor Na/K-ATPase/Src complex (ouabain antagonist) [1]: receptor antagonists

O=C(O)[C@H](O)Cc1ccc(O)c(O)c1 [danshensu]
identification as antagonist of receptor Na/K-ATPase/Src complex (ouabain antagonist) [1]: identified
identification as antagonist of receptor Na/K-ATPase/Src complex (ouabain antagonist) ([1]; listed as Tanshensu): receptor antagonists

COc1cc(/C=C/C(=O)O)ccc1O [ferulic acid]
effect on ouabain-induced ERK activation (ERK in LLC-PK1 cells): inhibitory effects
identification as antagonist of receptor Na/K-ATPase/Src complex (ouabain antagonist) [1]: identified; also recorded: receptor antagonists

CCCCCCCC/C=C\CCCCCCCC(=O)O [oleic acid]
Src activation (pY418 / total Src) (Src in LLC-PK1 cells): activated Src

C[C@@H]1O[C@@H](O[C@H]2C[C@@H](O)[C@]3(CO)[C@H]4[C@H](O)C[C@]5(C)[C@@H](C6=CC(=O)OC6)CC[C@]5(O)[C@@H]4CC[C@]3(O)C2)[C@H](O)[C@H](O)[C@H]1O [ouabain]
Src activation (pY418 / total Src) [4]: activate Src
Src activation (pY418 / total Src) [5]: abolished their effects
Src activation (pY418 / total Src) [6]: activate Src
Src activation (pY418 / total Src) [7]: could no longer activate Src
Src activation (pY418 / total Src) [8]: could no longer activate Src
Src activation (pY418 / total Src) [9]: activated Src

Cc1coc2c1C(=O)C(=O)c1c-2ccc2c1CCCC2(C)C [tanshinone IIA]
identification as antagonist of receptor Na/K-ATPase/Src complex (ouabain antagonist) [1]: identified
effect on ouabain-induced Src activation (Src pY418) [3]: antagonizing effects

Cc1coc2c1C(=O)C(=O)c1c-2ccc2c(C)cccc12 [tanshinone I]
effect on ouabain-induced ERK activation (ERK in LLC-PK1 cells): inhibitory effects
identification as antagonist of receptor Na/K-ATPase/Src complex (ouabain antagonist) [1]: identified
effect on ouabain-induced activation of ERKs (ERKs in LLC-PK1 cells): inhibition
effect on ouabain-induced Src activation (Src pY418) [3]: antagonizing effects
